Reference: US12433875B2, “(R)-4-(1-(6-(4-(trifluoromethyl)benzyl)-6-azaspiro[2.5]octane-5-carboxamido)-cyclopropyl) benzoic acid or its salt also in polymorphic form a for use in the prevention of heterotopic ossification” (ROTTAPHARM BIOTECH S.R.L., priority 2019, dated 2025)
“Also recorded” adds a separate entry of the source.

Key:
Assay type in all cases: in vivo, rat
[1] = system: Male Lewis rats (CIA model, heterotopic bone formation); experiment: Collagen Induce Arthritis (CIA) in rats, histological scores
Excerpt: Collagen Induce Arthritis (CIA) in rats is among the most common models used to mimic human arthritis and especially Rheumatoid Arthritis (RA). In general the joint response seen in this model is quite similar to that observed in human pathology, in terms of inflammation, bone erosion and cartilage damage. Nevertheless, this model differs from Rheumatoid Arthritis, since it is endowed with a consistent periosteal woven bone formation (immature bone) that is not a usual feature of human RA (maybe, less than 10% of patients have this type of bone reaction). On the contrary, this disordered apposition of new bone is the distinctive feature of heterotopic ossification. Therefore, this model was used to study the effect of the compound of the invention in Pathological heretopic osteogenesis.
Male Lewis rats were immunized by intradermal injection at the base of the tail with an emulsion containing 150 μg of bovine collagen type II (bCII) in complete Freund's adjuvant (CFA) or received an injection with incomplete Freund's adjuvant (sham group). Three weeks after the first immunisation, animals were boosted with the same procedure. Three days after booster injection, arthritis had developed in all animals but the sham group. The administration of the compound (1) Form A started at this time point and lasted for 14 days (once a day, unless otherwise indicated).
The paws were fixed in 10% neutral buffered formalin (Bio-Optica, Milan, Italy) and subsequently decalcified in EDTA for 4 weeks. Samples were dehydrated in an ethanol series and embedded in paraffin. At least three non-consecutive sections for each paw were blindly scored at the level of the tarsus, metatarsus and calcaneus for the following histological features of woven bone. Two independent pathologists performed histopathology on blinded slides. The data of right and left hind limbs were summed for each rat.
In FIG. 3 the dose-response curve for the compound of the invention is reported. the compound was administered once a day for 14 days on the site where the pathological bone formation was expected as induced in the CIA model in rats. The dose were 1 mg/Kg, 3 mg/kg and 10 mg/kg. The data were expressed as the median (boxed area), 95% interquartile range (whiskers), and individual data (symbols) of the histological scores for heterotopic bone formation (osteogenesis) given by two pathologists unaware of the treatment groups on a following scale: 0=absent; 1=mild/focal; 2=moderate/multifocal; 3=severe/multifocal to diffuse. Since arthritis was bilateral, the scores for each rat was the sum of the two leg scores. […] The compound reached the maximal activity at 10 mg/kg.
The data were expressed as the median histological scores for heterotopic bone formation (osteogenesis) as described for FIG. 3. […] As for osteogenesis, the data reported in this graph were the median (boxed area), 95% interquartile range (whiskers), and individual data (symbols) of the histological scores for synovial hyperplasia (oedema) given by two pathologists unaware of the treatment groups on a following scale: 0=normal: 1-2 layers of synovial lining cells, 1=mild: focal to multifocal 3-4 layers of synovial lining cells and/or mild proliferation of subsynovial tissue, 2=moderate: focal to mutlitfocal >4-6 layers of synovial lining cells and/or moderate proliferation of subsynovial tissue, 3=severe: multifocal to diffuse >6-8 layers of synovial lining cells and/or severe proliferation of subsynovial tissue. Since arthritis was bilateral, the scores for each rat is the sum of the two leg scores. This underline a preferential and surprising effect of (R)-4-(1-(6-(4-(trifluoromethyl)benzyl)-6-azaspiro[2.5]octane-5-carboxamido)cyclopropyl)benzoic acid on the heterotopic bone formation, […].
The free acid form has been assayed in the rat CIA model as already described for its sodium salt (Form A). […]

[2] = system: Male Lewis rats (CIA model, osteophyte formation); experiment: CIA model in rats, micro-CT study of bone structure
Method: Male Lewis rats were immunized and treated exactly as described in example 2.
Specifically, the animals were divided in four groups: controls, vehicle treated CIA rat, and two groups administered with a dose of 10 mg/kg and 30 mg/kg, respectively, of the compound of the invention.
After 14 days of treatment, bone samples corresponding to hind limbs (left and right) of arthritic rats or sham ones were sent for micro-CT analysis to Atlantic Bone Screen (ABS, 3 rue Aronnax, 44800 SAINT-HERBLAIN France). Bone samples were sent to ABS facilities after they have been removed from soft tissue and fixed in formalin solution within a maximum of 1 week.
40 samples were analyses blindly. Then, the unmask data were analyzed to compare the different groups:
Analyses of calcaneus and knee density and microarchitectural characteristics were performed using the high-resolution X-ray micro-CT. […] To quantitatively compare the four groups, the hind paw calcaneus, knee (proximal tibial and distal femoral epiphysis) and proximal tibial metaphysis were identified as the anatomical sites for micro-CT analysis. The bone mineral density (BMD), bone volume ratio (BV/TV), bone surface (BS) and bone surface-volume ratio (BS/BV) was calculated while including calcaneus, proximal tibial and distal femoral epiphysis (cortical bone, cancellous bone and potential osteophytes).

[3] = system: Sprague Dawley male rats (AIA model); experiment: Adjuvant Induced Arthritis (AIA) in rats, histology of pathological bone apposition; settings: 10 mg/kg orally once a day for 15 days, FIG. 10
Excerpt: Adjuvant Induced Arthritis (AIA) in rats is a widely studied and accepted animal model of inflammatory arthritis driven by Tcells. In experimental autoimmune diseases, CFA mediated activation of the innate immune compartment is important not only by regulating the early induction phase, but also by providing a surplus of effector and regulator cells in the late phase. Also in this model it was possible to appreciate a relevant pathological apposition of new bone. This paradigm was used as a third model to further confirm the effect of the compound of the invention as an effective inhibitor of pathological heterotopic ossification.
Sprague Dawley male rats (Charles River) were immunized by intradermal injection at the base of the tail with 150 μl of complete Freund's adjuvant (CFA) containing 10 mg/ml of heat killed Mycobacterium tuberculosis (Chondrex code 7027) or with incomplete Freund's adjuvant (IFA) (sham n=10). Ten days after immunization arthritis developed in all animals, but not in the sham-group; edema and clinical scores were assessed and the animals were then randomized and assigned to treatment groups (n=9-12) as follows: vehicle, the compound of the invention 10 mg/kg or 30 mg/kg. The compound of the invention was administered orally once a day for 15 days. […]

For `O=C([O-])c1ccc(C2(NC(=O)[C@H]3CC4(CCN3Cc3ccc(C(F)(F)F)cc3)CC4)CC2)cc1.[Na+]` [Form A, sodium (R)-4-(1-(6-(4-(trifluoromethyl)benzyl)-6-azaspiro[2.5]octane-5-carboxamido)cyclopropyl)benzoate], which “activity against heterotopic ossification in combination with methotrexate” value ([1]; 1 mg/kg combined with methotrexate 0.5 mg/kg every other day, FIG. 5) is on record?
The value was “not hindered by the combination with this drug”.

And the “activity against heterotopic ossification compared with methotrexate” value ([1]; 1 mg/kg vs methotrexate 0.5 mg/kg every other day, FIG. 5)?
Its value is “higher than the comparative compound”.

And the “activity on heterotopic bone formation (osteogenesis) compared with Methylsulfonylmethane (MSM)” value ([1]; 10 mg/kg once a day vs MSM 600 mg/kg, FIG. 4)?
The value was “greatly superior”.

And the “control of the inflammatory response (edema; histological scores for synovial hyperplasia)” value ([1]; 15 mg/kg each, FIG. 6b)?
Its value is “equally effective”.

And the “activity in preventing pathological heterotopic ossification compared with rofecoxib” value ([1]; 15 mg/kg, identical dose of rofecoxib, FIG. 6a)?
The value was “surprisingly superior”.

And the “histological scores for heterotopic bone formation (osteogenesis)” value ([1]; 1, 3 and 10 mg/kg once a day for 14 days, FIG. 3)?
The value was “capable to counteract the heterotopic bone formation; also recorded: able to counteract bony spur formation in a dose-dependent fashion”.

What about the “lowest effective dose against heterotopic ossification” value ([1]; FIG. 5) of the same molecule?
Its value is 1 mg/kg.

And the “dose of maximal activity against heterotopic bone formation” value ([1]; once a day for 14 days, FIG. 3)?
The value was 10 mg/kg.

And the “osteophytes at calcaneus and knee (micro-CT)” value ([2]; 10 and 30 mg/kg, 14 days of treatment, FIG. 8)?
The value was “the osteophytes disappeared at both site”.

And the “optimal dose (maximal activity) against osteophyte formation” value ([2]; micro-CT, maintained at 30 mg/kg)?
The value was 10 mg/kg.

And the “pathological bone apposition (histology)” value [3]?
Its value is “completely abrogated the pathological bone apposition in almost all animals”.
